In test [1] the test system is Human dental pulp cells (hDPCs). Briefly: Optical microscope observation of hDPCs after H2O2 and test substance. Format: cell-based. Particulars: 24 hours. The protocol: Human dental pulp cells (hDPCs) were cultured in an α-MEM medium containing 10% FBS under 37° C. and 5% CO2 conditions.
hDPCs were seeded into 35 mm culture dishes at a density of 1×10^5 cells, cultured for 24 hours, treated with H2O2 at a concentration of 5 uM, 100 uM, 1 mM, or 2 mM, respectively, and then treated with 100 ng/ml of a recombinant CPNE7 protein and cultured for 24 hours. After the culture was completed, the cultured cells were washed with PBS, and observed using an optical microscope. At this time, the hDPCs cultured without treating the recombinant CPNE7 protein (rCPNE7) were used as the control.
Cultured hDPC cells were seeded into 6-well plates at a density of 1×10^5 cells per well, cultured for 24 hours, and then treated with 1 mM hydrogen peroxide (H2O2) and treated with Selcopintide at concentrations of 1 μg/mL, 10 μg/mL, 100 μg/mL, and 500 μg/mL for 24 hours. Untreated hDPCs were used as the control.

The subject of test [2] is hDPCs. Kind of test: Reactive oxygen species level with DCFDA, confocal microscope. Format: cell-based, human. To be noted: 1 mM H2O2, 10 μg/mL Selcopintide, imaged for approximately one hour. The protocol:
Cultured hDPCs were seeded into 35 mm culture dishes for a confocal microscope at a density of 1×10^5 cells, cultured for 24 hours, and then treated with 1 mM H2O2 and treated with 100 ng/mL of rCPNE7. Then, images were taken for approximately one hour using a confocal microscope.
Cultured hDPCs were seeded into 35 mm culture dishes for a confocal microscope at a density of 1×10^5 cells, cultured for 24 hours, and then treated with 1 mM H2O2 and treated with 10 μg/mL of Selcopintide. Thereafter, images were taken for approximately one hour using a confocal microscope.

For test [3], the system named is hDPCs. Kind of test: Immunofluorescence staining with γ-H2A.X (DNA damage marker). Format: cell-based, human. To be noted: 1 mM H2O2, 10 μg/mL Selcopintide, 24 hours, vs 1 mM H2O2 group. The protocol: Cultured hDPCs were seeded into 35 mm culture dishes for a confocal microscope at a density of 1×10^5 cells, cultured for 24 hours, and then treated with 1 mM H2O2 and treated with 100 ng/mL of rCPNE7. After 24 hours, the cells were fixed with 4% paraformaldehyde.
Immunofluorescence staining using a γ-H2A.X antibody was performed on the fixed cells to compare intensity.
Cultured hDPCs were seeded into 35 mm culture dishes for a confocal microscope at a density of 1×10^5 cells, cultured for 24 hours, and then treated with 1 mM H2O2 and treated with 10 μg/mL of Selcopintide. After 24 hours, the cells were fixed with 4% paraformaldehyde.

The next test deals with hDPC cells. Briefly: Amount of living cells by WST-8. Format: cell-based, human. Particulars: hDPCs, 1 mM H2O2, 1 μg/mL and 10 μg/mL Selcopintide, 24 hours; compared to H2O2-only-treated group. The protocol: Cultured hDPC cells were seeded into 96-well plates at a density of 3×10^3 cells per well, cultured for 24 hours, and then treated with 1 mM hydrogen peroxide (H2O2) and treated with Selcopintide at concentrations of 1 μg/mL, 10 μg/mL, 100 μg/mL, and 500 μg/mL for 24 hours. Untreated hDPCs were used as the control.
(§1) The WST-8 solution was added to each well and allowed to react for 1 hour, and then absorbance was measured at 450 nm using a microplate reader and compared.

Test [4] concerns endogenous antioxidant enzymes in hDPC cells. Kind of test: mRNA levels of endogenous antioxidant enzymes by RT-PCR. Type of test: cell-based, human. To be noted: hDPCs, 1 mM H2O2, CPNE7 recombinant protein 100 ng/mL or Selcopintide 10 ug/mL. The protocol:
Cultured hDPCs were seeded into 60 mm culture dishes at a density of 4×10^5 cells, cultured for 24 hours, and then treated with 1 mM H2O2 and treated with the CPNE7 recombinant protein (100 ng/mL) and Selcopintide (10 ug/mL). After 30 minutes and one hour, the mRNA levels of Sod1, 2, and 3, catalase, Gpx7, Hmox1, and Txmd1 were checked.

For test [5], the system named is cardiomyocytes (H9C2 cell line). Briefly: Optical microscope observation of cardiomyocytes after H2O2 and Selcopintide. Particulars: H9C2, 1 mM H2O2, Selcopintide 1, 10, 100 and 500 μg/mL, 24 hours; compared to H2O2-only-treated group. Format: cell-based. The protocol:
Cultured H9C2 cells were seeded into 6-well plates at a density of 1×10^5 cells per well, cultured for 24 hours, and then treated with 1 mM hydrogen peroxide (H2O2) and treated with Selcopintide at concentrations of 1 μg/mL, 10 μg/mL, 100 μg/mL, and 500 μg/mL for 24 hours. Untreated H9C2 cells were used as the control.

In test [6] the test system is H9C2 cells. Briefly: Amount of living cells by WST-8 in cardiomyocytes. Type of test: cell-based. Particulars: H9C2, 1 mM H2O2, 1, 10, 100 and 500 μg/mL Selcopintide, 24 hours; compared to H2O2-only-treated group. The protocol:
Cultured H9C2 cells were seeded into 96-well plates at a density of 3×10^3 cells per well, cultured for 24 hours, and then treated with 1 mM hydrogen peroxide (H2O2) and treated with Selcopintide at concentrations of 1 μg/mL, 10 μg/mL, 100 μg/mL, and 500 μg/mL for 24 hours. Untreated H9C2 cells were used as the control.
as §1

Test [7] concerns H9C2 cells. Kind of test: B-gal staining, cell aging in cardiomyocytes. Type of test: cell-based. To be noted: H9C2, 1 mM H2O2, Selcopintide 1, 10, 100 and 500 μg/mL, 24 hours; compared to H2O2-only-treated group. The protocol: Cultured H9C2 was seeded into 6-well plates at a density of 1×10^5 cells, cultured for 24 hours, and then treated with 1 mM H2O2 and treated with 1 μg/mL, 10 μg/mL, 100 μg/mL, and 500 μg/mL of Selcopintide. After 24 hours, the cells were fixed with 4% paraformaldehyde.
Next, B-gal staining was performed on the fixed cells for 24 hours to compare the degree of cell aging. 24 hours after treatment with 1 mM H2O2, a large number of B-gal positive H9C2 cells were identified.

Test [8] deals with dermal fibroblast (CCD986SK) cells. Briefly: Optical microscope observation of dermal fibroblasts after H2O2 and Selcopintide. Type of test: cell-based. To be noted: 24 hours. The protocol:
Cultured CCD986SK cells were seeded into 6-well plates at a density of 1×10^5 cells per well, cultured for 24 hours, and then treated with 1 mM hydrogen peroxide (H2O2) and treated with Selcopintide at concentrations of 1 μg/mL, 10 μg/mL, 100 μg/mL, and 500 μg/mL for 24 hours. Untreated CCD986SK cells were used as the control.

Test [9] has as its system CCD986SK cells. Kind of test: Amount of living cells by WST-8 in dermal fibroblasts. Type of test: cell-based. Particulars: 1 mM H2O2, 1, 10, 100 and 500 μg/mL Selcopintide, 24 hours, compared to H2O2-only-treated group. The protocol: Cultured CCD986SK cells were seeded into 96-well plates at a density of 3×10^3 cells per well, cultured for 24 hours, and then treated with 1 mM hydrogen peroxide (H2O2) and treated with Selcopintide at concentrations of 1 μg/mL, 10 μg/mL, 100 μg/mL, and 500 μg/mL for 24 hours. Untreated CCD986SK cells were used as the control.
The WST-8 solution was added to each well and allowed to react for one hour, and then absorbance was measured at 450 nm using a microplate reader and compared.

For test [10], the system named is CCD986SK cells. Kind of test: B-gal staining, cell aging in dermal fibroblasts. Type of test: cell-based. Particulars: 1 mM H2O2, Selcopintide 1, 10, 100 and 500 μg/mL, 24 hours, compared to H2O2-only-treated group. The protocol:
Cultured CCD986SK cells were seeded into 6-well plates at a density of 1×10^5 cells, cultured for 24 hours, and then treated with 1 mM H2O2 and treated with 1 μg/mL, 10 μg/mL, 100 μg/mL, and 500 μg/mL of Selcopintide. After 24 hours, the cells were fixed with 4% paraformaldehyde.
B-gal staining was performed on the fixed cells for 24 hours to compare the degrees of cell aging. 24 hours after treatment with 1 mM H2O2, a large number of B-gal positive CCD986SK cells were identified.

The mark [11] stands for this setting: 1 mM H2O2, Selcopintide 1, 10, 100 and 500 μg/mL, compared to H2O2-only-treated group.

On to “KYKQKRRSYK (Novel peptide) [Selcopintide]”, for which the “cell viability (optical microscope)” value is “high” in test [1] (1 mM H2O2, 1 μg/mL and 10 μg/mL treatment groups); “higher” in [1] (setting [11]); “higher” in [5]; “higher” in test [8] (setting [11]). In addition, the “amount of reactive oxygen species (DCFDA)” value with hDPCs [2] was “decreased and became significant at approximately one hour”. Moreover, the “accumulation of DNA damage (γ-H2A.X intensity)” value with hDPCs [3] is given as “significantly reduced”. Also, the “cell viability (WST-8, absorbance 450 nm)” value with hDPC cells, in the test on H9C2 cells [6] and in the test with CCD986SK cells [9] was “significantly higher” throughout. Further, the “mRNA of endogenous antioxidant enzymes Sod1, 2, and catalase” value in test [4] (after 30 minutes, compared to H2O2-only-treated group) is recorded as “significantly increased”. Also, the “mRNA of Sod1 and Gpx7, and Hmox1 and Txrnd1” value in test [4] (after one hour) is reported as “significantly increased”. The “number of B-gal positive H9C2 cells” value in the test on H9C2 cells [7] is given as “significantly reduced”. For the same sequence, the “significance of higher cell viability (optical microscope)” value in [8] (1 mM H2O2, 1 μg/mL and 10 μg/mL of Selcopintide) is given as “highest”. Also, in the test on CCD986SK cells [10], the “number of B-gal positive CCD986SK cells” value is recorded as “significantly reduced”.

The record behind these values is US20260263554A1, “COMPOSITION COMPRISING CPNE7 PROTEIN OR CPNE7 PROTEIN-DERIVED PEPTIDE FOR REMOVING REACTIVE OXYGEN SPECIES IN CELLS” (HYSENSBIO CO., LTD, priority 2022, published 2026).
